In article PMC10551445, “Piperlongumine is a ligand for the orphan nuclear receptor 4A1 (NR4A1)” (Frontiers in Pharmacology, 2023):

Target: orphan nuclear receptor 4A1 (NR4A1) (Homo sapiens, UniProt P22736)
Assay: ITC with the NR4A1 LBD; also Trp fluorescence quenching (KD […]) and GAL4-NR4A1 reporter assay
Type: binding

Chain of orphan nuclear receptor 4A1 (NR4A1) (P22736 360-598 limits assumed): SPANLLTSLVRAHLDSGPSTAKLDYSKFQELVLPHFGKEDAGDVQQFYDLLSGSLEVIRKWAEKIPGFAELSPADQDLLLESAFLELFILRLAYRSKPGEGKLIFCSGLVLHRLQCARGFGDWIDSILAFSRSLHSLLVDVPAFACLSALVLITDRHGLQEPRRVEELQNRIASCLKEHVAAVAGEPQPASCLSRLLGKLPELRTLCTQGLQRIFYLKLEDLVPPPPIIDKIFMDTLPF

## COc1cc(/C=C/C(=O)N2CCC=CC2=O)cc(OC)c1OC [piperlongumine]
  Kd: 4.97 µM
